Measurements from ChEMBL document CHEMBL5055673, “Direct evidence of edge-to-face CH/π interaction for PAR-1 thrombin receptor activation” (Bioorg Med Chem, 2021).
Numbered stars: 1 amine (or outer) side, 2 acyl side, 3 side chain; on linkers, the order of the positions; unused ones are H or OH. Square brackets hold non-standard residues; d marks the D form. Peptide text beside a SMILES is read from it. Phe(3,4,5-F3) = N[C@@H](Cc1cc(F)c(F)c(F)c1)C(=O)O; Phe(F5) = N[C@@H](Cc1c(F)c(F)c(F)c(F)c1F)C(=O)O; X1 = O=C([C@H](Cc1c(F)c(F)cc(F)c1F)N[*:1])[*:2]; X2 = O=C([C@H](Cc1c(F)cc(F)c(F)c1F)N[*:1])[*:2]; X3 = O=C([C@H](Cc1cc(F)c(F)c(F)c1F)N[*:1])[*:2]; Phe(3,5-F2) = N[C@@H](Cc1cc(F)cc(F)c1)C(=O)O; X4 = O=C([C@H](Cc1ccc(F)c(F)c1F)N[*:1])[*:2]; X5 = O=C([C@H](Cc1cc(F)c(F)cc1F)N[*:1])[*:2]; X7 = O=C([C@H](Cc1c(F)cc(F)cc1F)N[*:1])[*:2]; Phe(2,6-F2) = N[C@@H](Cc1c(F)cccc1F)C(=O)O; X6 = O=C([C@H](Cc1cc(F)ccc1F)N[*:1])[*:2]; Phe(4-F) = N[C@@H](Cc1ccc(F)cc1)C(=O)O; Cha = N[C@@H](CC1CCCCC1)C(=O)O

Tests used:
[1] = target: T1, Proteinase-activated receptor 1 (Homo sapiens) (UniProt P25116); test: Activation of PAR-1 in human platelet-rich plasma assessed as induction of platelet aggregation by turbidimetric method relative to S/Phe/FLLRNP; assay type: cell-based
T1 sequence (whole entry): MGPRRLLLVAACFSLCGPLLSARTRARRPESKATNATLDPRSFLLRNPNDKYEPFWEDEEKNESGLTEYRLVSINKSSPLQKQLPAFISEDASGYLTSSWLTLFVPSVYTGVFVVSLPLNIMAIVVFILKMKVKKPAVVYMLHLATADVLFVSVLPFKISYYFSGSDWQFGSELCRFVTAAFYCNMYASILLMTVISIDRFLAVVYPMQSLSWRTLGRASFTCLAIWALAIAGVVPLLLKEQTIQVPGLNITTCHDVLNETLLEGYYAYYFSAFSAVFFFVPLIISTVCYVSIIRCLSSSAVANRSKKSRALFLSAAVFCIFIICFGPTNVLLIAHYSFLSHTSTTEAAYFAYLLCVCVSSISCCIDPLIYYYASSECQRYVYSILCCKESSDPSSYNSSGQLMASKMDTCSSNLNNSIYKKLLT

[2] = target: T2, Proteinase-activated receptor 1 (Homo sapiens, UniProt P25116); test: Activation of PAR-1 in human platelet-rich plasma assessed as induction of platelet aggregation by turbidimetric method
T2 sequence (P25116 whole entry): T1 sequence (whole entry)

Homo sapiens [3] = species: Homo sapiens; test: Induction of platelet aggregation in human platelet-rich plasma assessed as decrease in turbidity by turbidimetric method; assay type: functional
Homo sapiens [4] = species: Homo sapiens; test: Induction of platelet aggregation in human platelet-rich plasma assessed as increase in transmissivity by turbidimetric method; assay type: functional

Activity [1] [%]	Activity ([1]; filed as activator) [%]	Compound	also measured
3		CC(C)C[C@H](NC(=O)[C@H](CC(C)C)NC(=O)[C@H](CC1CCCCC1)NC(=O)[C@@H](N)CO)C(=O)N[C@@H](CCCNC(=N)N)C(=O)N[C@@H](CC(N)=O)C(=O)N1CCC[C@H]1C(N)=O (H-S[Cha]LLRNP-NH2)	
11		CC(C)C[C@H](NC(=O)[C@H](Cc1c(F)cccc1F)NC(=O)[C@@H](N)CO)C(=O)N[C@@H](CC(C)C)C(=O)N[C@@H](CC(N)=O)C(=O)N1CCC[C@H]1C(N)=O (H-S[Phe(2,6-F2)]LLNP-NH2)	
16		CC(C)C[C@H](NC(=O)[C@H](Cc1cc(F)c(F)c(F)c1)NC(=O)[C@@H](N)CO)C(=O)N[C@@H](CC(C)C)C(=O)N[C@@H](CC(N)=O)C(=O)N1CCC[C@H]1C(N)=O (H-S[Phe(3,4,5-F3)]LLNP-NH2)	
11		CC(C)C[C@H](NC(=O)[C@H](Cc1cc(F)cc(F)c1)NC(=O)[C@@H](N)CO)C(=O)N[C@@H](CC(C)C)C(=O)N[C@@H](CC(N)=O)C(=O)N1CCC[C@H]1C(N)=O (H-S[Phe(3,5-F2)]LLNP-NH2)	
	250	CC(C)C[C@H](NC(=O)[C@H](Cc1ccc(F)cc1)NC(=O)[C@@H](N)CO)C(=O)N[C@@H](CC(C)C)C(=O)N[C@@H](CC(N)=O)C(=O)N1CCC[C@H]1C(N)=O (H-S[Phe(4-F)]LLNP-NH2)	
0		CC(C)C[C@H](NC(=O)[C@H](Cc1c(F)c(F)c(F)c(F)c1F)NC(=O)[C@@H](N)CO)C(=O)N[C@@H](CC(C)C)C(=O)N[C@@H](CC(N)=O)C(=O)N1CCC[C@H]1C(N)=O (H-S[Phe(F5)]LLNP-NH2)	
0		CC(C)C[C@H](NC(=O)[C@H](CC(C)C)NC(=O)[C@H](Cc1c(F)c(F)c(F)c(F)c1F)NC(=O)[C@@H](N)CO)C(=O)N[C@@H](CCCNC(=N)N)C(=O)N[C@@H](CC(N)=O)C(=O)N1CCC[C@H]1C(N)=O (H-S[Phe(F5)]LLRNP-NH2)	EC50 [2]: Not Active
0		CC(C)C[C@H](NC(=O)[C@H](CC(C)C)NC(=O)[C@H](Cc1c(F)c(F)cc(F)c1F)NC(=O)[C@@H](N)CO)C(=O)N[C@@H](CCCNC(=N)N)C(=O)N[C@@H](CC(N)=O)C(=O)N1CCC[C@H]1C(N)=O (H-S[X1]LLRNP-NH2)	EC50 [2]: Not Active
34		CC(C)C[C@H](NC(=O)[C@H](Cc1c(F)cc(F)c(F)c1F)NC(=O)[C@@H](N)CO)C(=O)N[C@@H](CC(C)C)C(=O)N[C@@H](CC(N)=O)C(=O)N1CCC[C@H]1C(N)=O (H-S[X2]LLNP-NH2)	
34		CC(C)C[C@H](NC(=O)[C@H](CC(C)C)NC(=O)[C@H](Cc1c(F)cc(F)c(F)c1F)NC(=O)[C@@H](N)CO)C(=O)N[C@@H](CCCNC(=N)N)C(=O)N[C@@H](CC(N)=O)C(=O)N1CCC[C@H]1C(N)=O (H-S[X2]LLRNP-NH2)	
6		CC(C)C[C@H](NC(=O)[C@H](Cc1cc(F)c(F)c(F)c1F)NC(=O)[C@@H](N)CO)C(=O)N[C@@H](CC(C)C)C(=O)N[C@@H](CC(N)=O)C(=O)N1CCC[C@H]1C(N)=O (H-S[X3]LLNP-NH2)	
6		CC(C)C[C@H](NC(=O)[C@H](CC(C)C)NC(=O)[C@H](Cc1cc(F)c(F)c(F)c1F)NC(=O)[C@@H](N)CO)C(=O)N[C@@H](CCCNC(=N)N)C(=O)N[C@@H](CC(N)=O)C(=O)N1CCC[C@H]1C(N)=O (H-S[X3]LLRNP-NH2)	
	98	CC(C)C[C@H](NC(=O)[C@H](Cc1ccc(F)c(F)c1F)NC(=O)[C@@H](N)CO)C(=O)N[C@@H](CC(C)C)C(=O)N[C@@H](CC(N)=O)C(=O)N1CCC[C@H]1C(N)=O (H-S[X4]LLNP-NH2)	
	180	CC(C)C[C@H](NC(=O)[C@H](Cc1cc(F)c(F)cc1F)NC(=O)[C@@H](N)CO)C(=O)N[C@@H](CC(C)C)C(=O)N[C@@H](CC(N)=O)C(=O)N1CCC[C@H]1C(N)=O (H-S[X5]LLNP-NH2)	
35		CC(C)C[C@H](NC(=O)[C@H](Cc1cc(F)ccc1F)NC(=O)[C@@H](N)CO)C(=O)N[C@@H](CC(C)C)C(=O)N[C@@H](CC(N)=O)C(=O)N1CCC[C@H]1C(N)=O (H-S[X6]LLNP-NH2)	
	49	CC(C)C[C@H](NC(=O)[C@H](Cc1c(F)cc(F)cc1F)NC(=O)[C@@H](N)CO)C(=O)N[C@@H](CC(C)C)C(=O)N[C@@H](CC(N)=O)C(=O)N1CCC[C@H]1C(N)=O (H-S[X7]LLNP-NH2)	
0		H-SALLRNP-NH2	EC50 [2]: Not Active
	100	H-SFLLNP-NH2	
	100	H-SFLLRNP-NH2	Activity (Homo sapiens [3]): Dose-dependent effect; Activity (Homo sapiens [4]): Dose-dependent effect
